Reference: patent US20240294881A1, “CELL CULTURE SUPPLEMENT FOR PRODUCING STEM CELLS, AND METHOD FOR PRODUCING STEM CELLS” (OPTICELL, INC, priority 2021, published 2024)

Tests used:
[1] = system: Hela cells (human cervical epithelial cancer); test: Study on plate shape: spheroid formation; type: cell-based; conditions: 96-well plate coated with 0.125% solution, 2 days of culture
Procedure: (§1) 200 μl of an aqueous solution of the polypeptide represented by formula (1) (0.125%) (cell culture supplement) was added to each well of a commercial 96-well flat-bottom plate (Thermo Fisher Scientific), a V-bottom plate (Thermo Fisher Scientific), and a U-bottom plate (Thermo Fisher Scientific) and allowed to stand at 4° C. for 16 hours.
(§2) Thereafter, the excess cell culture supplement was removed, and the remaining solution was dried under reduced pressure at room temperature for 24 hours.
(§3) Hela cells (human cervical epithelial cancer, JCRB9004, National Institutes of Biomedical Innovation, Health and Nutrition) and HOS-143B (human osteosarcoma) were seeded at 2,000 cells/well in a culture plate coated with the cell culture supplement and cultured at 37° C. under 5% CO2 conditions. The medium used was DMEM+10% FBS.

[2] = system: HOS-143B (human osteosarcoma); test: Study on plate shape: spheroid formation; type: cell-based; conditions: 96-well plate coated with 0.125% solution, 2 days of culture
Procedure: as §1, §2, §3

[3] = system: healthy human neonatal fibroblasts; test: Real-time PCR of undifferentiated stem cell and three germ layer marker genes in neonatal fibroblast spheroids (96-well round-bottom); type: cell-based; conditions: day 20 of 3D spheroid culture, coated 96-well round-bottom; 2D control without supplement day 0 = 1.0; ΔΔCt
Procedure: To observe the spheroid formation and stem cell induction in healthy human neonatal fibroblasts over time, culture was performed by using a 96-well round-bottom culture vessel. An aqueous solution of the polypeptide represented by formula (1) (0.125%) (cell culture supplement) was added to a commercial polystyrene-made 96-well round-bottom culture vessel (Nunclon Delta 96U Bottom, Thermo Fisher Scientific) at 100 μL/well and allowed to stand at 4° C. for 24 hours. Thereafter, the excess cell culture supplement was removed, and the remaining solution was dried in a dryer at 37° C. for 96 hours to complete coating treatment with the cell culture supplement. Fibroblasts were maintained and cultured in a serum-free medium (Promo Cell; fibroblast basal medium, basic-FGF 5 ng/ml and insulin 2.5 μg/mL). The fibroblasts floating in the medium were seeded in the culture vessel coated with the cell culture supplement at 4×10^4 cells/well/100 μL and cultured at 37° C. under 5% CO2 conditions.
To investigate the expression mechanism of the undifferentiated stem cell marker genes found in Example 1 over time, real-time PCR analysis was performed by using the following three transcription factors: SOX2 (sex-determining region Y-box 2), OCT4 (octamer binding transcription factor 4), and NANOG (homeodomain transcription factor), and a TaqMan gene expression assay probe (B-actin) as an endogenous control gene. In the expression analysis, relative quantification was performed according to the ΔΔCt method (Delta Delta Ct method) (FIG. 8).
To determine whether stem cells induced from fibroblasts have a differentiation-inducing ability, analysis was conducted on the expression of genes associated with the three germ layers that indicate the early stages of differentiation. Fibroblasts were cultured in the same type of a 96-well culture vessel treated with the cell culture supplement as above according to the same method. Real-time PCR analysis was performed by using the following expression detection probes for the genes associated with differentiation into the three germ layers: SOX17 (sex-determining region Y-box 17; endoderm), HAND1 (Heart-and neural crest derivatives-expressed protein-1; mesoderm), and MAP2 (microtubule associated protein 2: ectoderm), and a TaqMan gene expression assay probe (ß-actin) as the endogenous control gene. In the expression analysis, relative quantification was performed according to the ΔΔCt method (Delta Delta Ct method) (FIG. 9).

[4] = system: canine tubule-derived MDCK II cells; test: Inhibition of induction of apoptosis, Caspase-3/7 activity assay in spheroids; type: cell-based; conditions: U- and V-bottom 96-well plates coated with 0.5% solution diluted 4-fold and 8-fold; day 3 and day 6; concentration-dependent, more pronounced on day 6
Procedure: (§4) An aqueous solution of the polypeptide represented by formula (1) was added in two different concentrations (prepared by diluting a 0.5% solution 4-fold and 8-fold) at 100 μL/well and 200 μL/well respectively to two 96-well cell culture plates with different bottom shapes (plate #163320 with a U-shaped bottom; Corning, NY, USA, and plate #277143 with a V-shaped bottom; Thermo Fisher Scientific, MA, USA) and allowed to stand overnight at 4° C. Thereafter, the excess cell culture supplement was removed, and the remaining solution was dried in a clean bench for about 6 hours to complete the treatment with the cell culture supplement. […] After three days and six days, the apoptosis activity per well was measured by using a Caspase activity assay kit (Apo-ONE Homogeneous Caspase-3/7 Assay kit; Promega, WI, USA). […] Thereafter, 100 μL of the culture fluid was transferred to a black 96-well cell culture plate (#237105; Thermo Fisher Scientific, MA, USA), and the value of fluorescence at 590 nm (excitation light at 560 nm) was measured with a plate reader. The value determined by subtracting the value for reagent-only with no cells (blank value) from a measured value was considered to be the measured value for each day of culture, and the values compared to those of the plate not coated with the aqueous solution of the polypeptide represented by formula (1) (control) were plotted.

[5] = system: HOS-143B cells; test: as above; type: cell-based, human; conditions: U- and V-bottom 96-well plates coated with 0.5% solution diluted 4-fold and 8-fold; day 3 and day 6; concentration-dependent, more pronounced on day 6
Procedure: as §4

(Pro-Hyp-Gly)n [cell culture supplement]
spheroid formation, U-bottom plate [1]: several spheroids | spheroid formation, V-bottom plate [1]: a single spheroid | spheroid formation, flat-bottom plate [1]: Numerous small spheroids | spheroid formation, U-bottom plate [2]: several spheroids | spheroid formation, V-bottom plate [2]: a single spheroid | spheroid formation, flat-bottom plate [2]: Numerous small spheroids | HAND1 (mesoderm) gene expression level (increase vs control) [3]: 4.6 fold | MAP2 (ectoderm) gene expression level (increase vs control) [3]: 24.2 fold | NANOG gene expression level (increase vs control) [3]: 35.4 fold | OCT4 gene expression level (increase vs control) [3]: 30.1 fold | SOX2 gene expression level (increase vs control) [3]: 144.0 fold | SOX17 (endoderm) gene expression level (increase vs control) [3]: 359.6 fold | apoptosis (Caspase-3/7 activity) compared with uncoated plate [4]: inhibited | apoptosis (Caspase-3/7 activity) compared with uncoated plate [5]: inhibited
